In brackets after ≈: the same amount, converted by molar mass. Each block holds one molecule with its values, some of them ahead of it.
What was measured:
Staphylococcus aureus [1] = assay: Antibacterial activity against methicillin-resistant Staphylococcus aureus after 24 hrs by microbroth dilution method; assay type: functional
Staphylococcus aureus [2] = assay: Antibacterial activity against Staphylococcus aureus after 16 hrs by broth microdilution method; assay type: functional
Escherichia coli [3] = assay: Antibacterial activity against Escherichia coli after 16 hrs by broth microdilution method; assay type: functional
[4] = Antioxidant activity assessed as DPPH free radical scavenging activity incubated for 30 mins in dark condition; assay type: functional
Staphylococcus aureus [5] = assay: Antibacterial activity against Staphylococcus aureus ATCC 6538 by agar diffusion method; assay type: functional
[6] = Antioxidant activity assessed as BTH equivalent of DPPH-induced radical scavenging activity; assay type: functional
Escherichia coli [7] = assay: Antibacterial activity against Escherichia coli ATCC 10536 by agar diffusion method; assay type: functional
[8] = Antioxidant activity assessed as DPPH free radical scavenging activity; assay type: functional
Escherichia coli [9] = assay: Antibacterial activity against Escherichia coli; assay type: functional
Staphylococcus aureus [10] = assay: Antibacterial activity against Staphylococcus aureus; assay type: functional
Escherichia coli [11] = assay: Antibacterial activity against Escherichia coli ATCC 25922 after 18 to 24 hrs by microdilution method; assay type: functional
[12] = Antioxidant activity assessed as DPPH free radical scavenging activity after 30 to 60 mins by UV-vis spectrophotometric analysis; assay type: functional
Pseudomonas syringae = assay: Antibacterial activity against Pseudomonas glycinea FSB 40 after 18 to 24 hrs by microdilution method; assay type: functional, Pseudomonas savastanoi pv. glycinea
[13] = tested on: Pseudomonas savastanoi pv. phaseolicola; assay: Antibacterial activity against Pseudomonas phaseolicola FSB 29 after 18 to 24 hrs by microdilution method; assay type: functional
Azotobacter chroococcum = assay: Antibacterial activity against Azotobacter chroococcum FSB 14 after 18 to 24 hrs by microdilution method; assay type: functional
Staphylococcus aureus [14] = assay: Antibacterial activity against Staphylococcus aureus ATCC 25923 after 18 to 24 hrs by microdilution method; assay type: functional
Bacillus subtilis = assay: Antibacterial activity against Bacillus subtilis FSB 2 after 18 to 24 hrs by microdilution method; assay type: functional
Pseudomonas fluorescens = assay: Antibacterial activity against Pseudomonas fluorescens FSB 28 after 18 to 24 hrs by microdilution method; assay type: functional
Klebsiella pneumoniae = assay: Antibacterial activity against Klebsiella pneumoniae FSB 26 after 18 to 24 hrs by microdilution method; assay type: functional
Micrococcus luteus = assay: Antibacterial activity against Micrococcus lysodeikticus ATCC 4698 after 18 to 24 hrs by microdilution method; assay type: functional
Bacillus mycoides = assay: Antibacterial activity against Bacillus mycoides FSB 1 after 18 to 24 hrs by microdilution method; assay type: functional
Enterobacter cloacae = assay: Antibacterial activity against Enterobacter cloacae FSB 22 after 18 to 24 hrs by microdilution method; assay type: functional
Staphylococcus aureus [15] = assay: Antibacterial activity against Staphylococcus aureus FSB 30 after 18 to 24 hrs by microdilution method; assay type: functional
[16] = tested on: Pectobacterium carotovorum; assay: Antibacterial activity against Erwinia carotovora FSB 31 after 18 to 24 hrs by microdilution method; assay type: functional
Bacillus cereus = assay: Antibacterial activity against Bacillus cereus by turbidity assay; assay type: functional
Proteus vulgaris = assay: Antibacterial activity against Proteus vulgaris by turbidity assay; assay type: functional
Staphylococcus aureus [17] = assay: Antibacterial activity against Staphylococcus aureus by turbidity assay; assay type: functional
Escherichia coli [18] = assay: Antibacterial activity against Escherichia coli by turbidity assay; assay type: functional
Enterococcus faecalis = assay: Antibacterial activity against Enterococcus faecalis; assay type: functional
Staphylococcus aureus [19] = assay: Antibacterial activity against Staphylococcus aureus ATCC 29213 assessed as inhibition of bacterial growth at 25 g/L incubated for 24 hrs by serial dilution method relative to cntrol; assay type: functional; details: ATCC 29213, 24 h, read-out: GI
Staphylococcus aureus [20] = assay: Bactericidal activity against Staphylococcus aureus ATCC 29213 incubated for 24 hrs by serial dilution method; assay type: functional
[21] = Antioxidant activity assessed as DPPH free radical scavenging activity incubated for 30 min by UV-vis spectrophotometric analysis; assay type: functional
Escherichia coli [22] = assay: Antibacterial activity against Escherichia coli KCTC 1924 after 20 to 36 hrs by disc diffusion method; assay type: functional
Staphylococcus aureus [23] = assay: Antibacterial activity against Staphylococcus aureus KCTC 1916 after 20 to 36 hrs by disc diffusion method; assay type: functional
Escherichia coli [24] = assay: Antibacterial activity against Escherichia coli after 18 hrs by CLSI broth microdilution method; assay type: functional
Staphylococcus aureus [25] = assay: Antibacterial activity against Staphylococcus aureus after 18 hrs by CLSI broth microdilution method; assay type: functional

Compound: COc1cc(/C=C/c2cc(/C=C/c3ccc(OCC(=O)N[C@@H](C)c4ccccc4)c(OC)c3)[nH]n2)ccc1OCC(=O)N[C@@H](C)c1ccccc1
- MIC (Staphylococcus aureus [1]): 10 to 20 µg/mL (≈ 14.6 to 29.1 µM)

Compound: COc1cc(C2CC(C(=NNc3ccc(C)cc3)C3=NC(=S)NC(c4ccc(O)c(OC)c4)C3)=NC(=S)N2)ccc1O (stereo not drawn)
- IC50 [4]: 0.679 µg/mL (≈ 1.13 µM)

Compound: COc1cc(/C=C/c2cc(/C=C/c3ccc(OCC(=O)Nc4ccccc4C)c(OC)c3)[nH]n2)ccc1OCC(=O)Nc1ccccc1C
- MIC (Staphylococcus aureus [1]): 10 to 20 µg/mL (≈ 15.2 to 30.4 µM)

Compound: Cc1ccc(NC(C)c2c(O)c3ccccc3oc2=O)cc1 (stereo not drawn)
- MIC (Escherichia coli [11]): 3.9 to 7.8 µg/mL (≈ 13.2 to 26.4 µM)
- IC50 [12]: 94 µM
- MIC (Pseudomonas syringae): 3.9 to 7.8 µg/mL (≈ 13.2 to 26.4 µM)
- MIC [13]: 3.9 to 7.8 µg/mL (≈ 13.2 to 26.4 µM)
- MIC (Azotobacter chroococcum): 3.9 to 7.8 µg/mL (≈ 13.2 to 26.4 µM)
- MIC (Staphylococcus aureus [14]): 3.9 to 7.8 µg/mL (≈ 13.2 to 26.4 µM)
- MIC (Bacillus subtilis): 3.9 to 7.8 µg/mL (≈ 13.2 to 26.4 µM)
- MIC (Pseudomonas fluorescens): 3.9 to 7.8 µg/mL (≈ 13.2 to 26.4 µM)
- MIC (Klebsiella pneumoniae): 3.9 to 7.8 µg/mL (≈ 13.2 to 26.4 µM)
- MIC (Micrococcus luteus): 3.9 to 7.8 µg/mL (≈ 13.2 to 26.4 µM)
- MIC (Bacillus mycoides): 3.9 to 7.8 µg/mL (≈ 13.2 to 26.4 µM)
- MIC (Enterobacter cloacae): 3.9 to 7.8 µg/mL (≈ 13.2 to 26.4 µM)
- MIC (Staphylococcus aureus [15]): 3.9 to 7.8 µg/mL (≈ 13.2 to 26.4 µM)
- MIC [16]: 3.9 to 7.8 µg/mL (≈ 13.2 to 26.4 µM)

Compound: O=C(/C=C/c1ccc(O)c(O)c1)O[C@@H]1C[C@](O)(C(=O)O)C[C@@H](O)[C@H]1O [CHLOROGENIC ACID]
- EC50 [8]: 13.8 µg/mL (≈ 38.9 µM)
- MIC (Staphylococcus aureus [10]): 32 to 128 µg/mL (≈ 90.3 to 361 µM)
- MIC (Enterococcus faecalis): 32 to 128 µg/mL (≈ 90.3 to 361 µM)

Compound: COc1cc(/C=C/c2cc(/C=C/c3ccc(OCC(=O)Nc4cc(Cl)cc(Cl)c4)c(OC)c3)[nH]n2)ccc1OCC(=O)Nc1cc(Cl)cc(Cl)c1
- MIC (Staphylococcus aureus [1]): 10 to 20 µg/mL (≈ 13 to 26 µM)

Compound: COc1cc(/C=C/c2cc(/C=C/c3ccc(OCC(=O)NC45CC6CC(CC(C6)C4)C5)c(OC)c3)[nH]n2)ccc1OCC(=O)NC12CC3CC(CC(C3)C1)C2
- MIC (Staphylococcus aureus [1]): 10 to 20 µg/mL (≈ 13.4 to 26.8 µM)

Compound: COc1cc(N)ccc1O
- inhibition of growth at 25000 µg/mL (Staphylococcus aureus [19]): 93%
- MBC99 (Staphylococcus aureus [20]): 10 mM (≈ 1390 µg/mL)

Compound: COc1cc(/C=C/c2cc(/C=C/c3ccc(OCC(=O)N[C@H](C)c4ccccc4)c(OC)c3)[nH]n2)ccc1OCC(=O)N[C@H](C)c1ccccc1
- MIC (Staphylococcus aureus [1]): 10 to 20 µg/mL (≈ 14.6 to 29.1 µM)

The next lines start with results.

- MIC (Staphylococcus aureus [2]): 1.25 µg/mL (≈ 8.32 µM)
- MIC (Escherichia coli [3]): 2.5 µg/mL (≈ 16.6 µM)
Compound: Cc1ccc(C(C)C)cc1O [CARVACROL]

- MIC (Staphylococcus aureus [5]): 100 µg/mL (≈ 365 µM)
- MIC (Escherichia coli [7]): 250 µg/mL (≈ 912 µM)
Compound: O=C(CCc1ccc(O)cc1)c1c(O)cc(O)cc1O [PHLORETIN]
- Activity [6]: 1.27 mg.equiv

- IC50 [8]: 78.74 µg/mL (≈ 196 µM)
- MIC (Escherichia coli [9]): 9.5 µg/mL (≈ 23.7 µM)
- MIC (Staphylococcus aureus [10]): 10.5 µg/mL (≈ 26.2 µM)
Compound: COc1cccc2c1OCC(c1nnn(Cc3cn(Cc4ccccc4)nn3)n1)=C2

- EC50 [8]: 13.4 µg/mL (≈ 37.8 µM)
Compound: O=C(/C=C/c1ccc(O)c(O)c1)O[C@@H]1C[C@@](O)(C(=O)O)C[C@@H](O)[C@@H]1O

- MIC (Escherichia coli [11]): 3.9 to 31.2 µg/mL (≈ 12 to 95.6 µM)
- IC50 [12]: 26 µM
- MIC (Pseudomonas syringae): 3.9 to 31.2 µg/mL (≈ 12 to 95.6 µM)
- MIC [13]: 3.9 to 31.2 µg/mL (≈ 12 to 95.6 µM)
- MIC (Azotobacter chroococcum): 3.9 to 31.2 µg/mL (≈ 12 to 95.6 µM)
- MIC (Staphylococcus aureus [14]): 3.9 to 31.2 µg/mL (≈ 12 to 95.6 µM)
- MIC (Bacillus subtilis): 3.9 to 31.2 µg/mL (≈ 12 to 95.6 µM)
- MIC (Pseudomonas fluorescens): 3.9 to 31.2 µg/mL (≈ 12 to 95.6 µM)
- MIC (Klebsiella pneumoniae): 3.9 to 31.2 µg/mL (≈ 12 to 95.6 µM)
- MIC (Micrococcus luteus): 3.9 to 31.2 µg/mL (≈ 12 to 95.6 µM)
- MIC (Bacillus mycoides): 3.9 to 31.2 µg/mL (≈ 12 to 95.6 µM)
- MIC (Enterobacter cloacae): 3.9 to 31.2 µg/mL (≈ 12 to 95.6 µM)
- MIC (Staphylococcus aureus [15]): 3.9 to 31.2 µg/mL (≈ 12 to 95.6 µM)
- MIC [16]: 3.9 to 31.2 µg/mL (≈ 12 to 95.6 µM)
Compound: CC(Nc1ccc([N+](=O)[O-])cc1)c1c(O)c2ccccc2oc1=O (stereo not drawn)

- IC50 [8]: 28 µg/mL (≈ 37.2 µM)
- MIC (Bacillus cereus): 7.81 to 31.2 µg/mL (≈ 10.4 to 41.5 µM)
- MIC (Proteus vulgaris): 7.81 to 31.2 µg/mL (≈ 10.4 to 41.5 µM)
- MIC (Staphylococcus aureus [17]): 7.81 to 31.2 µg/mL (≈ 10.4 to 41.5 µM)
- MIC (Escherichia coli [18]): 7.81 to 31.2 µg/mL (≈ 10.4 to 41.5 µM)
Compound: COc1c2cc(C)cc1n1cc(ccc3cn(c4cc(C)cc(c4OC)n4cc(ccc5cn2c2ccccc52)c2ccccc24)c2ccccc32)c2ccccc21

- EC50 [21]: 3 µg/mL (≈ 10.8 µM)
- MIC (Escherichia coli [22]): 8.71 µg/mL (≈ 31.4 µM)
- MIC (Staphylococcus aureus [23]): 7.32 µg/mL (≈ 26.4 µM)
Compound: Oc1ccc2ccccc2c1-c1c[nH]c2ccc(F)cc12

- MIC (Escherichia coli [24]): 0.6 to 19 µg/mL
- MIC (Staphylococcus aureus [25]): 0.6 µg/mL
Compound: Cc1c(O)cc(CCCCCCCCCC[P+](c2ccccc2)(c2ccccc2)c2ccccc2)c(O)c1C
